Organism: Rattus norvegicus
Assay: DrugMatrix - Regimen: Daily Repeat
Format: toxicity, organism-based, Sprague-Dawley
Set-up: regimen Daily Repeat, gender Male, age 6-8 weeks
Settings: in vivo, iv, 20 mg/kg, dose level High, vehicle 100 % SALINE; for ABSOLUTE BASOPHIL / ABSOLUTE EOSINOPHIL / ABSOLUTE LYMPHOCYTE / ABSOLUTE MONOCYTE / ABSOLUTE SEGMENTED NEUTROPHIL / BASOPHIL / EOSINOPHIL / ERYTHROCYTE COUNT / HEMATOCRIT / HEMOGLOBIN / LEUKOCYTE COUNT / LYMPHOCYTE / MEAN CORPUSCULAR HEMOGLOBIN / MEAN CORPUSCULAR HEMOGLOBIN CONCENTRATION / MEAN CORPUSCULAR VOLUME / MONOCYTE / NEUTROPHIL / NUCLEATED RED BLOOD CELLS / PLATELET COUNT: tissue Blood; for ALANINE AMINOTRANSFERASE / ALBUMIN / ALKALINE PHOSPHATASE / ASPARTATE AMINOTRANSFERASE / BLOOD UREA NITROGEN / CARBON DIOXIDE / CHLORIDE / CHOLESTEROL / CREATINE PHOSPHOKINASE / CREATININE / GLUCOSE / LACTATE DEHYDROGENASE / LIPASE / PHOSPHORUS / POTASSIUM / SODIUM / TOTAL BILIRUBIN / TOTAL PROTEIN / URIC ACID: tissue Plasma

SMILES: CCN1CC(CCN2CCOCC2)C(c2ccccc2)(c2ccccc2)C1=O (stereo unspecified) [DOXAPRAM]
- ABSOLUTE BASOPHIL (72 h, time 3 day): 0 CELLS/uL
- ABSOLUTE EOSINOPHIL (72 h, time 3 day): 173.33 CELLS/uL
- ABSOLUTE LYMPHOCYTE (72 h, time 3 day): 15104 CELLS/uL
- ABSOLUTE MONOCYTE (72 h, time 3 day): 284 CELLS/uL
- ABSOLUTE SEGMENTED NEUTROPHIL (72 h, time 3 day): 1672 CELLS/uL
- BASOPHIL (72 h, time 3 day): 0%
- EOSINOPHIL (72 h, time 3 day): 1%
- ERYTHROCYTE COUNT (72 h, time 3 day): 5.38 x10E6/uL
- HEMATOCRIT (72 h, time 3 day): 34.17%
- HEMOGLOBIN (72 h, time 3 day): 13.5 G/DL
- LEUKOCYTE COUNT (72 h, time 3 day): 17.23 x10E3/uL
- LYMPHOCYTE (72 h, time 3 day): 87.67%
- MEAN CORPUSCULAR HEMOGLOBIN (72 h, time 3 day): 25.13 pg
- MEAN CORPUSCULAR HEMOGLOBIN CONCENTRATION (72 h, time 3 day): 39.53 G/DL
- MEAN CORPUSCULAR VOLUME (72 h, time 3 day): 63.6 fL
- MONOCYTE (72 h, time 3 day): 1.67%
- NEUTROPHIL (72 h, time 3 day): 9.67%
- NUCLEATED RED BLOOD CELLS (72 h, time 3 day): 0 /100WBC
- PLATELET COUNT (72 h, time 3 day): 1285.33 x10E3/uL
- ALANINE AMINOTRANSFERASE (72 h, time 3 day): 51.67 u/L
- ALBUMIN (72 h, time 3 day): 4.33 G/DL
- ALKALINE PHOSPHATASE (72 h, time 3 day): 402.67 u/L
- ASPARTATE AMINOTRANSFERASE (72 h, time 3 day): 102.67 u/L
- BLOOD UREA NITROGEN (72 h, time 3 day): 15 mg/dL
- CARBON DIOXIDE (72 h, time 3 day): 21.67 mmol/L
- CHLORIDE (72 h, time 3 day): 102 MEQ/L
- CHOLESTEROL (72 h, time 3 day): 79 mg/dL
- CREATINE PHOSPHOKINASE (72 h, time 3 day): 445.33 u/L
- CREATININE (72 h, time 3 day): 0.15 mg/dL
- GLUCOSE (72 h, time 3 day): 149.33 mg/dL
- LACTATE DEHYDROGENASE (72 h, time 3 day): 669.33 u/L
- LIPASE (72 h, time 3 day): 9 u/L
- PHOSPHORUS (72 h, time 3 day): 13.03 mg/dL
- POTASSIUM (72 h, time 3 day): 6.9 MEQ/L
- SODIUM (72 h, time 3 day): 143.67 MEQ/L
- TOTAL BILIRUBIN (72 h, time 3 day): 0.17 mg/dL
- TOTAL PROTEIN (72 h, time 3 day): 5.93 G/DL
- URIC ACID (72 h, time 3 day): 1.7 mg/dL
- ABSOLUTE BASOPHIL (120 h, time 5 day): 0 CELLS/uL
- ABSOLUTE EOSINOPHIL (120 h, time 5 day): 118.67 CELLS/uL
- ABSOLUTE LYMPHOCYTE (120 h, time 5 day): 15901.33 CELLS/uL
- ABSOLUTE MONOCYTE (120 h, time 5 day): 415.33 CELLS/uL
- ABSOLUTE SEGMENTED NEUTROPHIL (120 h, time 5 day): 1364.67 CELLS/uL
- BASOPHIL (120 h, time 5 day): 0%
- EOSINOPHIL (120 h, time 5 day): 0.67%
- ERYTHROCYTE COUNT (120 h, time 5 day): 5.51 x10E6/uL
- HEMATOCRIT (120 h, time 5 day): 34.63%
- HEMOGLOBIN (120 h, time 5 day): 13.57 G/DL
- LEUKOCYTE COUNT (120 h, time 5 day): 17.8 x10E3/uL
- LYMPHOCYTE (120 h, time 5 day): 89.33%
- MEAN CORPUSCULAR HEMOGLOBIN (120 h, time 5 day): 24.63 pg
- MEAN CORPUSCULAR HEMOGLOBIN CONCENTRATION (120 h, time 5 day): 39.17 G/DL
- MEAN CORPUSCULAR VOLUME (120 h, time 5 day): 62.8 fL
- MONOCYTE (120 h, time 5 day): 2.33%
- NEUTROPHIL (120 h, time 5 day): 7.67%
- NUCLEATED RED BLOOD CELLS (120 h, time 5 day): 0 /100WBC
- PLATELET COUNT (120 h, time 5 day): 1309.33 x10E3/uL
- ALANINE AMINOTRANSFERASE (120 h, time 5 day): 57 u/L
- ALBUMIN (120 h, time 5 day): 4.33 G/DL
- ALKALINE PHOSPHATASE (120 h, time 5 day): 365.67 u/L
- ASPARTATE AMINOTRANSFERASE (120 h, time 5 day): 95.67 u/L
- BLOOD UREA NITROGEN (120 h, time 5 day): 16 mg/dL
- CARBON DIOXIDE (120 h, time 5 day): 23.33 mmol/L
- CHLORIDE (120 h, time 5 day): 102.67 MEQ/L
- CHOLESTEROL (120 h, time 5 day): 66.33 mg/dL
- CREATINE PHOSPHOKINASE (120 h, time 5 day): 259 u/L
- CREATININE (120 h, time 5 day): 0.18 mg/dL
- GLUCOSE (120 h, time 5 day): 166 mg/dL
- LACTATE DEHYDROGENASE (120 h, time 5 day): 229 u/L
- LIPASE (120 h, time 5 day): 8.33 u/L
- PHOSPHORUS (120 h, time 5 day): 13.17 mg/dL
- POTASSIUM (120 h, time 5 day): 6.59 MEQ/L
- SODIUM (120 h, time 5 day): 144.97 MEQ/L
- TOTAL BILIRUBIN (120 h, time 5 day): 0.23 mg/dL
- TOTAL PROTEIN (120 h, time 5 day): 5.93 G/DL
- URIC ACID (120 h, time 5 day): 2.2 mg/dL

Reference: ChEMBL document CHEMBL3885881, “DrugMatrix”
